Source: US20260008805A1, “ADENOSINE ANALOGS FOR THE TREATMENT OF DISEASE” (BIOINTERVENE, INC., priority 2022, published 2026)
Where two headings read alike, the source gives them in different places.

Assays:
[1] = target: T1, human A3 receptors (Homo sapiens, UniProt P0DMS8); assay: Adenosine receptor binding assay ([3H]HEMADO competition); details: Cheng-Prusoff, read-out: hA3 Ki
T1 construct: expressed in transfected cells; host or cells: HEK-293 cells, stably transfected; membrane preparation
T1 sequence (P0DMS8 1-318): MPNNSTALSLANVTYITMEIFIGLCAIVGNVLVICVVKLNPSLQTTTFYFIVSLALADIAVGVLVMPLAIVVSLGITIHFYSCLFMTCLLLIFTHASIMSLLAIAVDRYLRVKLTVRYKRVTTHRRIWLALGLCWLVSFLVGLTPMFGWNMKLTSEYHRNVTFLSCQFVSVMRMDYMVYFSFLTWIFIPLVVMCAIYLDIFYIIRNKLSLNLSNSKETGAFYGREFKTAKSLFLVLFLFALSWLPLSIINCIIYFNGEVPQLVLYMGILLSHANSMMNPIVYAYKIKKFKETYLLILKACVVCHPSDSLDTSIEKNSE
Description: Materials and Reference Compounds: [^3H] HEMADO (obtained from (ARC, Cat: ART1456) and [3H] DPCPX (obtained from PerkinElmer Cat no. NET974250UC)). IB-MECA was obtained from Tocris (Bristol, UK) and N6-cyclopentyl adenosine (CPA) is obtained from Sigma-Alrich (Poole, UK). Cell culture media, G418 and hygromycin are obtained from Invitrogen (Paisley, UK). Fetal calf serum is obtained from Perbio Science (Cheshire, UK). All other reagents are obtained from Fisher Chemicals (Loughborough, UK).
The method followed is that of Yates L, Clark J H, Martin T J, James S, Broadley K J, Kidd E J. Radioligand binding and functional responses of ligands for human recombinant adenosine A3 receptors. Auton Autacoid Pharmacol. 2006; 26 (2): 191-200. Cells stably transfected with the human adenosine A3 or A1 receptor are grown in Dulbecco's modified Eagles medium with nutrient mixture F12 containing NaHCO3 and Glutamax. Media is supplemented with 10% fetal calf serum, geneticin (G418; 0.67 mg/mL), hygromycin (500 μg/mL) and adenosine deaminase (1 U/mL). Cells are maintained at 37° C. with 5% CO2 in air. Cells are harvested and homogenized in ice-cold Tris buffer [50 mM Tris, 150 mM NaCl, 1 mM ethylenediaminetetraacetic acid (EDTA), pH 7.4] supplemented with the peptidase inhibitors, 4-(2-aminoethyl)benzene sulfonylfluoride (1 mM) and bacitracin (0.1 mg/mL), using a Polytron homogenizer (3×10 s bursts). The homogenate is spun for 10 min (4° C.) at 500 g. The supernatant is retained and the pellet is re-suspended in the buffer, homogenized and spun as above. The combined supernatants are centrifuged for 15 min (4° C.) at 48,000 g. The resultant pellet is re-suspended in the buffer and centrifuged for a second time at 48,000 g. The membrane pellet is then suspended in Tris buffer containing no peptidase inhibitors or adenosine deaminase and stored at −80° C. at a protein concentration of 1 mg/mL.
Binding Assays: Radioligand-binding assays are performed using the adenosine A3 receptor agonist [^3H] HEMADO and the A1 receptor […] [^3H] DPCPX. Binding assays are conducted in a total volume of 100 μL containing a 50 mM Tris, pH 7.4 buffer with or without 10 mM MgCl2, 20 μg membranes and either 4.154 nM [3H] HEMADO (for the A3 receptor) or 1.6065 nM [^3H] DPCPX (for the A1 receptor). Assays are conducted at room temperature for 60 min (A1 receptor) or 120 min (A3 receptor) and terminated by the addition of 2 ml of ice-coldish buffer (50 mM Tris, pH 7.4 with or without 10 mM MgCl2) and rapid filtration over 0.03% polyethylenimine-treated Whatman GF/C filters using a Brandel cell harvester (Semat International Ltd., St Albans, UK). Filters are then ished three times with 2 ml of ice-cold buffer. The filter-bound radioactivity are counted using a Compugamma counter (LKB Wallac, Turku, Finland). Competition experiments are performed to investigate the ability of reference compounds and embodiments of the invention to inhibit [^3H] HEMADO binding. Non-specific binding are determined using the respective compound at its highest concentration.
Data Analysis: The Kd and Bmax values for binding data are calculated based upon the molar amounts of bound and free [^3H] HEMADO. […] IC50 and Ki values and Hill slopes for inhibition of the radioligand binding by the compounds of the invention are calculated from the ligand competition curves using the Excel spreadsheet and the Kd value calculated for either [^3H] HEMADO or [^3H] DPCPX. The results are expressed as a percent of control specific binding and as a percent inhibition of control specific binding obtained in the presence of the compounds of the invention. The IC50 values (concentration causing a half-maximal inhibition of control specific binding) and Hill coefficients (nH) are determined by non-linear regression analysis of the competition curves generated with mean replicate values using Hill equation curve fitting: […]

[2] = target: T2, human adenosine A3 receptor (Homo sapiens, UniProt P0DMS8); assay: Intracellular cAMP levels (inhibition of forskolin-stimulated cAMP production); type: cell-based; details: for EC50: CHO-K1 cells expressing human adenosine A3 receptor, forskolin 10 μM; for cAMP Efficacy (%): maximal response as percentage of the response produced by 100 nM IB-MECA
T2 construct: expressed in transfected cells; host or cells: CHO-K1 cells, stably transfected
T2 sequence (P0DMS8 1-318): T1 sequence (P0DMS8 1-318)
Description: The method followed is that published in Yates L, Clark J H, Martin T J, James S, Broadley K J, Kidd E J. Radioligand binding and functional responses of ligands for human recombinant adenosine A3 receptors. Auton Autacoid Pharmacol. 2006 April; 26 (2): 191-200.
Materials and Cell Culture: Adenosine deaminase is obtained from Roche (Lewes, UK). Forskolin is obtained from Sigma-Aldrich (Poole, UK). The sources of other materials are provided above in Example 1. CHO-K1 cells stably transfected with the human adenosine A3 receptor are grown in Dulbecco's modified Eagles medium with nutrient mixture F12 containing NaHCO3 and Glutamax. Media is supplemented with 10% fetal calf serum, geneticin (G418; 0.67 mg/mL), hygromycin (500 μg/mL) and adenosine deaminase (1 U/mL). Cells are maintained at 37° C. with 5% CO2 in air.
CAMP Measurements: Intracellular cAMP production is measured directly using a non-acetylation cAMP enzyme immunoassay (Amersham Biosciences, Little Chalfont, UK). Cultured CHO cells expressing human adenosine A3 receptors are allowed to plate overnight in 96-well plates in culture medium containing adenosine deaminase. Twenty-four hours later, they are incubated with adenosine analogues or compounds of the invention (0.1 nM-1 μM) for 5 min at 37° C., followed by incubation with forskolin (10 μM) for 10 min. The cells are then lysed with 200 μL of lysis reagent 1 provided with the kit for 10 min to release intracellular CAMP. Aliquots of the supernatants are then transferred to a 96-well microtitre plate coated with donkey anti-rabbit IgG; 100-μL cAMP standards (12.5-3200 fmol/well) are also added to the microtitre plate; 100 μL of rabbit anti-cAMP antibody is added to all wells and incubated at 2-5° C. for 2 h. The antiserum is made up in lysis reagent 2, which sequesters the key component in lysis reagent 1 and ensures that CAMP is free for subsequent analysis. Then 50 μL of cAMP peroxidase conjugate is added to all wells and left to incubate for 60 min at 2-5° C. to allow competition for the antibody between the un-labelled and horse radish peroxidase (HRP)-labelled cAMP. Wells are then ished with buffer and 150 μL of enzyme substrate containing 3,3′,5,5′-tetramethylbenzidine/hydrogen peroxide in 20% (v/v) dimethylformamide is added to each well and left to incubate for 60 min on a Titramax 100 microtitre plate shaker (Heidolph Instruments, Schwabach, Germany) at room temperature for color development. The reaction is stopped by the addition of 100 μL of 1 M sulfuric acid and the optical density (OD) read at 450 nm on a spectrophotometric MRX microplate reader (Dynex Technologies, Chantilly, VA, USA).
Analyses: Each sample/standard was analyzed in duplicate and the resulting OD values averaged. The percent bound (B/B0) for each standard and sample was calculated using the following relationship:
[formula] • where B is the specific OD for standard/sample and B0 is the specific OD for the zero standard. A standard curve was generated by plotting % B/B0 as a function of the log fmol cAMP standard per well. The fmol per well value for cAMP in each sample was then read from the graph. The results are expressed as a percent of control agonist response: (measured response/control response)*100 in the presence of the compounds of the invention. Concentration-response curves for inhibition of cAMP production were constructed for all compounds of the invention and reference compounds. The EC50 values (concentration producing a half-maximal response) were determined by non-linear regression analysis of the concentration-response curves generated with mean replicate values using Hill equation curve fitting, according to the equation:
[formula] • where Y=response, A=left asymptote of the curve, D=right asymptote of the curve, C=compound concentration, and C50=EC50, and nH=slope factor. […]

[3] = Table 1, membranes of HEK-293 cells expressing human A3 receptor
[4] = Table 2, membranes of HEK-293 cells expressing human A3 receptor
[5] = Table 2, # = average between two data points

Compound | Ki [1, 3] [nM] | EC50 ([2]; Table 1) [nM] | cAMP Efficacy (%) ([2]; Table 1) | Ki [1, 4] [nM] | EC50 [2, 5] [nM] | cAMP Efficacy (%) [2, 5]
Cc1nc2c(Cl)nc3c(ncn3[C@H]3[C@H](O)[C@H](O)[C@]4(c5nnn(C)n5)C[C@H]34)c2[nH]1 [Compound 3B] | 1.27 | 1 | 31.72 | – | – | –
CNC(=O)[C@@]12C[C@@H]1[C@@H](n1cnc3c4c(c(Cl)nc31)CCC(C)N4)[C@H](O)[C@@H]2O (some centres unmarked) [10A*] | – | – | – | 2 | 0.48 | 105.25%
Cc1cc2c(Cl)nc3c(ncn3[C@H]3[C@H](O)[C@H](O)[C@]4(C(N)=O)C[C@H]34)c2[nH]1 [25A*] | – | – | – | 24.2 | 4.15 | 96.54%
Cc1cc2c(Cl)nc3c(ncn3[C@H]3[C@H](O)[C@H](O)C4C[C@@H]43)c2[nH]1 (some centres unmarked) [15A*] | – | – | – | 2.27 | 0.2 | 94.66^# %
CC1Cc2c(Cl)nc3c(ncn3[C@H]3[C@H](O)[C@H](O)C4C[C@@H]43)c2N1 (some centres unmarked) [12A*] | – | – | – | 14.8 | 11.4 | 63.56%
Cc1cc2c(Cl)nc3c(ncn3[C@H]3[C@H](O)[C@H](O)[C@]4(C#N)C[C@H]34)c2[nH]1 [26A*] | – | – | – | 98 | 100 | 5%
Cn1nnc([C@@]23C[C@@H]2[C@@H](n2cnc4c5[nH]c(C(F)F)cc5c(Cl)nc42)[C@H](O)[C@@H]3O)n1 [Compound 1B] | 1.09 | 1 | 5 | – | – | –
CNC(=O)[C@@]12C[C@@H]1[C@@H](n1cnc3c4c(c(Cl)nc31)CC(C)N4)[C@H](O)[C@@H]2O (some centres unmarked) [5A*] | – | – | – | 3.84 | 0.82 | 105.62%
Cc1cc2cnc3c(ncn3[C@H]3[C@H](O)[C@H](O)C4C[C@@H]43)c2[nH]1 (some centres unmarked) [14A*] | – | – | – | 2.56 | 2.03 | 87.04%

Now from value to compound:

Ki [1, 3] [nM] | EC50 ([2]; Table 1) [nM] | cAMP Efficacy (%) ([2]; Table 1) | Ki [1, 4] [nM] | EC50 [2, 5] [nM] | cAMP Efficacy (%) [2, 5] | Compound
2.1 | – | 2 | – | – | – | CCNc1cc(Cl)nc2c1ncn2[C@H]1[C@H](O)[C@H](O)[C@]2(c3nnn(C)n3)C[C@H]12 [Compound 13B]
41 | 16.1 | 70.12 | – | – | – | CCNc1cc(Cl)nc2c1ncn2[C@H]1[C@H](O)[C@H](O)[C@]2(c3ncco3)C[C@H]12 [Compound 10B]
12.1 | 1.87 | 104.81 | – | – | – | N#Cc1cc(NCc2cc(Cl)ccc2Cl)c2ncn([C@H]3[C@H](O)[C@H](O)[C@]4(c5ncc[nH]5)C[C@H]34)c2n1 [Compound 8B]
